Laboratory results reported in patent publication US11633382B2, “Treatment of ER-negative breast cancer with an PDGF-CC inhibitor and anti-estrogen” (Paracrine Therapeutics AB, priority 2015, dated 2023).

Assays:
[1] = test system: MDA-MB-231 tumors (basal-like subtype); test: MDA-MB-231 xenograft in SCID mice, tumor growth and angiogenesis (Example 1); type: in vivo; details: tamoxifen oral gavage daily with control antibody or A3B6 (FIG. 6c-d)
Description: 2×10^6 Human MDA-MB-231 cells were inoculated subcutaneously in immunodeficient mice. […] When tumors were palpable (longest diameter >3 mm), mice were randomized and treated with Tamoxifen (3 mg/kg) or vehicle (corn oil) via oral gavage daily.
In order to investigate whether pharmacological targeting of PDGF-CC as a mono-therapy impacted on breast tumor growth or angiogenesis, we treated SCID mice bearing orthotopically implanted MDA-MB-231 tumors (basal-like subtype) twice-weekly with the PDGF-CC antibody, A3B6 or with control antibody.
The clinically most important distinguishing feature of luminal subtype breast tumors is the expression of ERα, which confers sensitivity to hormone therapy, such as tamoxifen. We next set out to investigate whether targeting of PDGF-CC would convey sensitivity to hormone therapy to previously impervious ER-negative breast tumors of basal-like subtype. Non-transgenic mice bearing orthopically transplanted tumors from MMTV-PyMT; Pdgfc^+/+ or MMTV-PyMT; Pdgfc^lacz/lacz mice were treated daily with tamoxifen starting from […].

[2] = test system: MMTV-PyMT; Pdgfc+/+ tumors; test: Orthotopically transplanted MMTV-PyMT; Pdgfc+/+ (wt) tumors, tamoxifen trial; type: in vivo, FVB/N mice; details: tamoxifen daily (FIG. 6a)
Description: (§1) 3 weeks old FVB/N (common background strain for both MMTV-PyMT and PDGF-C mice) female mice were anesthetized and maintained under Isolfluorane during the surgical procedure. A 4 mm incision under the nipple of the right abdominal mammary gland created a pocket where a 2×2 mm tumor piece (kept on ice, either from MMTV-PyMT or MMTV-PyMT; PDGF-C tumors) was inserted. Suturing was performed with 6-O Ethilon polyamide filament (Ethicon). Pain-killer and anti-inflammatory Rimadyl (5 mg/kg body weight; Orion Pharma Animal Health) was injected i.p. at the end of the surgical procedure and for the following two days. For the therapeutic trial, Tamoxifen (2 mg/mL) was diluted in corn oil (vehicle) and administered via oral gavage daily.
(§2) Mouse mammary cell lines MMTV . . . MMTV/PDGF-C−/− . . . (established in our laboratory) were orthotopically injected into the 4th inguinal mammary gland on FVB/N mice. Furthermore, small tumor pieces (2 mm^3) of MMTV-PyMT and MMTV-PDGF-CC−/− tumors were directly orthotopically transplanted under anesthesia. The mice were subjected to Rimadyl immediately after the surgery and the following two days for analgetics. The tumors were measured twice a week and mice were euthanized as described above. […]

[3] = test system: MMTV-PyMT; Pdgfc^lacz/lacz tumors; test: Orthotopically transplanted MMTV-PyMT; Pdgfc lacz/lacz tumors, tamoxifen trial; type: in vivo, FVB/N mice; details: Pdgfc-deficient tumors
Description: as §1, §2

[4] = test system: ER-negative breast cancer; details: ER-negative disease, patients; cited from earlier work
[5] = test system: Human MDA-MB-231 cells; test: MDA-MB-231 orthotopic xenograft, anti-PDGF-CC and aromatase inhibitor (Example 2); type: in vivo, SCID mice; details: A3B6 i.p. twice a week, letrozole 1 mg/dose oral daily; combination p<0.01 vs control, p<0.05 vs A3B6, p<0.001 vs letrozole (FIG. 7)
Source text: All therapeutic administrations were open-label.

SMILES | growth of fully established MDA-MB-231 tumors [1] | tumor growth rate vs untreated mice [2] | tumor growth ([3]; tamoxifen daily (FIG. 6b)) | tumor volume at the end of the trial ([3]; tamoxifen daily, untreated tumors had grown) | effect on breast cancer recurrence or mortality [4] | tumor growth, difference between groups [5]
CCC(=C(c1ccccc1)c1ccc(OCCN(C)C)cc1)c1ccccc1 [tamoxifen, 2-[4-(1,2-diphenylbut-1-enyl)phenoxy]-N,N-dimethyl-ethanamine] | unable to influence the growth | continued to grow at a similar rate | severely growth-retarded | reduced volume | little or no effect | 
N#Cc1ccc(C(c2ccc(C#N)cc2)n2cncn2)cc1 [letrozole] |  |  |  |  |  | no other differences are statistically significant
